In patent US6056942A, “5-HT1A ligands” (John Wyeth & Brother, Ltd., priority 1993, dated 2000):
Where two headings read alike, the source gives them in different places.

Tests used:
5-HT1A receptor = target: T1, 5-HT1A receptor (Rattus norvegicus, UniProt P19327); test: Procedure (A): displacement of [^3 H]-8-OH-DPAT from the 5-HT1A receptor in rat hippocampal membranes; type: binding; settings: [^3 H]-8-OH-DPAT displacement, read-out: IC50 value according to procedure (A)
T1 construct: 5-HT1A receptor in rat hippocampal membranes; from tissue; host or cells: rat hippocampal membranes
T1 sequence (P19327 1-422): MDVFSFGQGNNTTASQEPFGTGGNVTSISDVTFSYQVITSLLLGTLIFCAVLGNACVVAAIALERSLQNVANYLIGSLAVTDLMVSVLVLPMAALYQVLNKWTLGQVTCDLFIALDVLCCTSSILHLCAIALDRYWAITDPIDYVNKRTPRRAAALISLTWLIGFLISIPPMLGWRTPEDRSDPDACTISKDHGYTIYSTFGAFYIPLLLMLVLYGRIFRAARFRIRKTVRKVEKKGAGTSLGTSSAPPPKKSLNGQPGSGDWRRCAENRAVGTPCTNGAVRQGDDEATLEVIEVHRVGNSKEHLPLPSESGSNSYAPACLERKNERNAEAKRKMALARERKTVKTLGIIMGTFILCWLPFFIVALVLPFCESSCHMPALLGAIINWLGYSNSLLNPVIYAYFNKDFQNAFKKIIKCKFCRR

D2 = D2 (Homo sapiens, UniProt P14416); test: Procedure (B): affinity for D2 receptor sites; type: binding; settings: for inhibition at 1 µM: 10^-6 M, read-out: % inhibition of binding at D2
Protocol: The affinity of the compounds for D2 receptor sites is determined by the procedure of P. Seeman et al. J. Neurochem. 1984, 43, 221-235.

5-HT2A = target: T2, 5-HT2A (Rattus norvegicus, UniProt P14842); test: Procedure (B): affinity for 5-HT2A sites; type: binding; settings: for inhibition at 1 µM: 10^-6 M, read-out: % inhibition of binding at 5-HT2A
T2 construct: from tissue
Protocol: The affinity of the compound for 5-HT2A sites is determined by the procedure of R. A. Lyon et al. Mol. Pharmacol., 1987, 31, 194-199. (The 5-HT2A site was previously known as the 5-HT2 site).
(§1) Preferably the compound should be 50 fold selective.

5-HT1B = target: T3, 5-HT1B (Rattus norvegicus, UniProt P28564); test: Procedure (B): affinity for 5-HT1B sites; settings: 10^-6 M; read-out: % inhibition of binding at 5-HT1B
T3 construct: from tissue
Protocol: (§2) In addition to showing selectivity over the D2, α1 and 5-HT2A sites it is also preferable that the compound is 25 fold selective (preferably 50 fold selective) over one or more of the 5-HT1B, 5-HT2C, 5-HT1D, 5-HT3, α2, β and D1 sites. The affinity for these sites is determined by the following procedures.
5-HT1B : B. J. Alexander et al., Br. J. Pharmac., 1986, 87, P 22.

α2 = target: T4, α2 (Rattus norvegicus, UniProt P22909); test: Procedure (B): affinity for α2 sites; settings: 10^-6 M; read-out: % inhibition of binding at α2
T4 construct: from tissue
T4 sequence (P22909 1-465): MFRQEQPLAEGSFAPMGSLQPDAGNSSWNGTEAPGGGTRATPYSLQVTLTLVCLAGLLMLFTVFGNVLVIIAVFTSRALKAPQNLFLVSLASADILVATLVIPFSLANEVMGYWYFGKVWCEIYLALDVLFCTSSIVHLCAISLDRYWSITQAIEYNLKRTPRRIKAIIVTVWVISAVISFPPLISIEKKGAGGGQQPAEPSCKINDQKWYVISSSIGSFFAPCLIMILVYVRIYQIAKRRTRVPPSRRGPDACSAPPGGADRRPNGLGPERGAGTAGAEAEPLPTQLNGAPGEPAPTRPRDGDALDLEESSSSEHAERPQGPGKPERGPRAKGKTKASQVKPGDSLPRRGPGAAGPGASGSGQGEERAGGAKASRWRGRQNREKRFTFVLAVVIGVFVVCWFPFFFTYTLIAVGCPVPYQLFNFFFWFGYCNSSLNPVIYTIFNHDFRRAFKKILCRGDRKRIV
Protocol: The affinity for these sites is determined by the following procedures. α2 : D. J. Loftus et al. Life Sciences, 1984, 34, 61-69.

D1 = target: T5, D1 (Rattus norvegicus, UniProt P18901); test: Procedure (B): affinity for D1 sites; settings: 10^-6 M; read-out: % inhibition of binding at D1
T5 construct: from tissue
Protocol: The affinity for these sites is determined by the following procedures. D1 : V Billard et al. Life Sciences. 1984, 35, 1885-1893.

α1 = test: Procedure (B): affinity for α1 sites; type: binding
Protocol: The affinity of the compound for al sites is determined by the procedure of A. L. Morrow, et al. Mol. Pharmacol. 1986, 29, 321.
as §1

5-HT2C = test: Procedure (B): affinity for 5-HT2C (previously 5-HT1C) sites; type: binding; settings: 10^-6 M
Protocol: as §2
5-HT2C : B. J. Alexander et al., Br. J. Pharmac., 1986, 87, P 22. (The 5-HT2C site was previously known as the 5-HT1C site).

5-HT1D = test: Procedure (B): affinity for 5-HT1D sites; type: binding
Protocol: The affinity for these sites is determined by the following procedures. […] C. Waeber et al., Naunyn-Schmniedebergs Arch. Pharmacol. 1988, 337, 595-601.

β = test: Procedure (B): affinity for β sites; type: binding; settings: 10^-6 M
Protocol: The affinity for these sites is determined by the following procedures. β: L. T. Williams and R. J. Lefkowitz (1987) Receptor binding studies in adrenergic pharmacology, Raven Press, New York.

[1] = target: T6, presynaptic 5-HT1A receptors (Rattus norvegicus, UniProt P19327); test: Procedure (C)(b): 5-HT release in the hippocampus using in vivo microdialysis; settings: 1 mg/kg s.c.
T6 construct: 5-HT release in the hippocampus using in vivo microdialysis; from tissue; host or cells: brain of the living animal
T6 sequence (P19327 1-422): T1 sequence (P19327 1-422)
Excerpt: (§3) The activation of presynaptic 5-HT1A receptors results in the inhibition of serotonin neurones which can be quantified in two ways:
Routledge, J. Gurling, I. K. Wright and C.

5-HT1A binding site [2] = target: T7, 5-HT1A binding site (Rattus norvegicus, UniProt P19327); test: biochemical
T7 sequence (P19327 1-422): T1 sequence (P19327 1-422)

[3] = target: T6, presynaptic 5-HT1A receptors; test: Procedure (C)(a): electrophysiological monitoring of firing rate of serotonin neurones; type: in vivo; settings: iv, read-out: ID50 (neuronal firing rate)
Protocol: as §3
(a) Electrophysiologically monitoring the activity of the neurones to measure their firing rate by the method of H. J. Haigler and G. K. Aghajanian, J. Pharmacol. Exp. Therap., 1974, 188, 688. An intravenous ID50 dose is determined. The agonist.

5-HT1A binding site [4] = target: T7, 5-HT1A binding site
[5] = concentration of 10 MM (so in the source)
[6] = concentration not clearly stated ("as were")

T2 sequence (P14842 whole entry): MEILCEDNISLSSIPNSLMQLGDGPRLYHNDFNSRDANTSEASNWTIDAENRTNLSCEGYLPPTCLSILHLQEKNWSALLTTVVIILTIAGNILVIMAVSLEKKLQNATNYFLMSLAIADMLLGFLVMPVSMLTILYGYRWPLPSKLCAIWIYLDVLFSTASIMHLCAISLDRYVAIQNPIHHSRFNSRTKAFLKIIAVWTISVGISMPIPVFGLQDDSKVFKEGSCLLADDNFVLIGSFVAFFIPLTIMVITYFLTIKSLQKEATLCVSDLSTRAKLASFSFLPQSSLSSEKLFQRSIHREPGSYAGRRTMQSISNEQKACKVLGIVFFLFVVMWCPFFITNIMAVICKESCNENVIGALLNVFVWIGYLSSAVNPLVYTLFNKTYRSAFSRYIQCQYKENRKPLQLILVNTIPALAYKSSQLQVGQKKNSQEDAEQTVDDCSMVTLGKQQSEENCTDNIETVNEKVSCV
T5 sequence (P18901 whole entry): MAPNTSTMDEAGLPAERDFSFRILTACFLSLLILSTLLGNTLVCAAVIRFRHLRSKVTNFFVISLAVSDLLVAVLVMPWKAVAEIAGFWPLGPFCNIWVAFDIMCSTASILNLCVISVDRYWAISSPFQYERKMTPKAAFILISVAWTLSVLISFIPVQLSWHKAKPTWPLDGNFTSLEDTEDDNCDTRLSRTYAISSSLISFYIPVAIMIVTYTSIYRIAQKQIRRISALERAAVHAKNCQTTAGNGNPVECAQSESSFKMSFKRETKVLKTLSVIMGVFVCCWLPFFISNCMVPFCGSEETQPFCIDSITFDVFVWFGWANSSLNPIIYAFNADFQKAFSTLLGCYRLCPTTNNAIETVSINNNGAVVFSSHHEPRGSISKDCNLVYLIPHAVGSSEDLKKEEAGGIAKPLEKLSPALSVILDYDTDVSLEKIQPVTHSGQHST
Sequence of D2 (P14416 whole entry): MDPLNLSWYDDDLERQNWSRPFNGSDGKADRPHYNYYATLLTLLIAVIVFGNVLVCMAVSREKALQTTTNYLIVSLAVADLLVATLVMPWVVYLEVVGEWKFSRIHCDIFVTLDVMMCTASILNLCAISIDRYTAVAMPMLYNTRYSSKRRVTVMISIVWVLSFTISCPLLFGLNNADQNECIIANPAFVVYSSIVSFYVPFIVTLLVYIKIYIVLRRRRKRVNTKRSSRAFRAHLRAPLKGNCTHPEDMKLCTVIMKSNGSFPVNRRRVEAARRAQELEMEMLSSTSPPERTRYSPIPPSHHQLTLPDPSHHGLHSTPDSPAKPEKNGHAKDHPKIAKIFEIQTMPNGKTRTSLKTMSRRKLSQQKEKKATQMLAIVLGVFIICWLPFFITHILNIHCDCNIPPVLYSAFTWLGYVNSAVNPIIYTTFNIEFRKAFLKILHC
T3 sequence (P28564 whole entry): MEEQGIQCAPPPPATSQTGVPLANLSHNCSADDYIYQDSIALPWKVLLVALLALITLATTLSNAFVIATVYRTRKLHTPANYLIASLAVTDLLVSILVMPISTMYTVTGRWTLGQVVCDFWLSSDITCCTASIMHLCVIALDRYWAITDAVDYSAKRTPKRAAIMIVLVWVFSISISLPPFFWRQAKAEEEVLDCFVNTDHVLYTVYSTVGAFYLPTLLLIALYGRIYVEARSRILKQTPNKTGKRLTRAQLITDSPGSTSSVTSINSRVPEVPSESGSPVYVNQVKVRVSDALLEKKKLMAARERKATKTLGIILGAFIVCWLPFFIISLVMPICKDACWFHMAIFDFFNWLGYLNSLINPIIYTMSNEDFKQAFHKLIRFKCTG

COc1ccccc1N1CCN(CC(C(=O)NC(C)(C)C)c2ccccc2)CC1 (racemic) [racemate, N-tert-butyl-3-[4-(2-methoxyphenyl)piperazinyl]-2-phenylpropanamide]
IC50 (5-HT1A receptor): 34 nM
inhibition at 1 µM (D2): 14%
inhibition at 1 µM (5-HT2A): 37%
inhibition at 1 µM (5-HT1B): 27%
inhibition at 1 µM (α2): 10%
inhibition at 1 µM (D1): 20%

COc1ccccc1N1CCN(CC(C(=O)NC(C)(C)C)c2ccccc2)CC1 (single isomer, unassigned; (+)) [(+)-enantiomer, N-tert-butyl-3-[4-(2-methoxyphenyl)piperazinyl]-2-phenylpropanamide]
IC50 (5-HT1A receptor): 15.5 nM
inhibition at 1 µM (D2): 20%
inhibition at 1 µM (5-HT2A): 61%
inhibition at 1 µM (5-HT1B): 22%
inhibition at 1 µM (α2): 11%
inhibition at 1 µM (D1): 22%

COc1ccccc1N1CCN(CC[C@@H](C(=O)N2CCCCCC2)c2ccccc2)CC1 [(c)]
IC50 (5-HT1A receptor): 0.3 nM
IC50 (D2; procedure (B)): 277 nM
IC50 (α1): 53 nM
IC50 (5-HT2A; procedure (B)): 106 nM
inhibition at 1 µM (5-HT1B): < 50%
% inhibition of binding at 5-HT2C (5-HT1C) (5-HT2C): < 50%
IC50 (5-HT1D; procedure (B)): 2240 nM
inhibition at 1 µM (α2): 53%
% inhibition of binding at β (β): < 50%
inhibition at 1 µM (D1): < 50%
effect of pretreatment on 8-OH-DPAT-induced decrease in 5-HT release [1]: completely blocked the 8-OH-DPAT-induced decrease in 5-HT release
effect on 5-HT release / extracellular levels of 5-HT in the hippocampus [1]: no significant effect on extracellular levels of 5-HT in the hippocampus

NCCc1c[nH]c2ccc(C(N)=O)cc12 [Compound 5-CT]
IC50 (5-HT1A binding site [2]): 10 to 100 nM

CCCN(CCC)C1CCc2cccc(O)c2C1 (centres unmarked) [Compound 8-OH-DPAT]
ED50 [3]: 1.9 µg/kg

COc1ccccc1N1CCN(CCN(C(=O)C2CCCCC2)c2ccccn2)CC1 [Compound (a), N-(2-(1-(4-(2-methoxyphenyl)piperazinyl))ethyl)-N-(2-pyridinyl)cyclohexanecarboxamide]
inhibition at 1 µM (D2): < 50%
inhibition at 1 µM (5-HT2A): < 50%
inhibition at 1 µM (5-HT1B): < 50%
% inhibition of binding at 5-HT2C (5-HT1C) (5-HT2C): < 50%
% inhibition of binding at 5-HT1D (5-HT1D; 10^-6 M): < 50%
inhibition at 1 µM (α2): < 50%
% inhibition of binding at β (β): < 50%
inhibition at 1 µM (D1): < 50%

CNC[C@H](O)c1cccc(O)c1 [L-phenylephrine]
displacement of hippocampal [^3 H]WAY-100635 binding (5-HT1A binding site [4]; [5]): ineffective

COc1ccccc1N1CCN(CCCCN2C(=O)c3ccccc3C2=O)CC1 [NAN 190]
IC50 (5-HT1A binding site [2]): 10 to 100 nM

COC(=O)c1cc2c(N3CCN(CCCCN4C(=O)c5ccccc5S4(=O)=O)CC3)cccc2[nH]1 [SDZ-216525]
IC50 (5-HT1A binding site [2]): 5 nM

O=C1CN=C(c2ccccc2Cl)c2cc([N+](=O)[O-])ccc2N1 [clonazepam]
displacement of hippocampal [^3 H]WAY-100635 binding (5-HT1A binding site [4]; [6]): ineffective

NCCc1ccc(O)c(O)c1 [dopamine]
displacement of hippocampal [^3 H]WAY-100635 binding (5-HT1A binding site [4]; [5]): ineffective

COCCCC/C(=N\OCCN)c1ccc(C(F)(F)F)cc1 [fluvoxarnine]
activity against [^3 H]WAY-100635 binding (5-HT1A binding site [4]; micromolar concentrations): inactive

CN(C)CCCN1c2ccccc2CCc2ccccc21 [imipramine]
displacement of hippocampal [^3 H]WAY-100635 binding (5-HT1A binding site [4]; [6]): ineffective

CC(C)NCC(O)c1ccc(O)c(O)c1 (centres unmarked) [isoprenaline]
displacement of hippocampal [^3 H]WAY-100635 binding (5-HT1A binding site [4]; [5]): ineffective

CSc1ccc2c(c1)C(N1CCN(C)CC1)Cc1ccccc1S2 (centres unmarked) [methiothepin]
IC50 (5-HT1A binding site [2]): 10 to 100 nM

NC[C@H](O)c1ccc(O)c(O)c1 [noradrenaline]
displacement of hippocampal [^3 H]WAY-100635 binding (5-HT1A binding site [4]; [5]): ineffective
